target: T1, human HDAC8 (Homo sapiens, UniProt Q9BY41); assay: Human HDAC enzyme inhibitor Fluor-de-Lys assay, HDAC8; assay type: biochemical; settings: 1.3 nM enzyme, 200 μM substrate BML-KI178, 3 h pre-incubation, 60 min reaction; read-out: HDAC8_IC50
T1 construct: purchased Enzo Life Sciences BML-SE145-0100
T1 sequence (Q9BY41 1-377): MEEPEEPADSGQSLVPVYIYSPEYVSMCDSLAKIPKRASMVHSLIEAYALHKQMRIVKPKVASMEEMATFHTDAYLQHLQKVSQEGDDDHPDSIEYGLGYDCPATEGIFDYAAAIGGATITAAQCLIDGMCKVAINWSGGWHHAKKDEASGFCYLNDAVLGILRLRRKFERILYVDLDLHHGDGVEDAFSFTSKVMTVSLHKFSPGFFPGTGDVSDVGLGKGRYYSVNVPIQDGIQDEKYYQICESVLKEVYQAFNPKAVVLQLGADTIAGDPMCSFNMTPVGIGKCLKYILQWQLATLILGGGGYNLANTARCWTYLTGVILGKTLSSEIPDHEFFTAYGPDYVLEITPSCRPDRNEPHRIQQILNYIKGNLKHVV
Description: Recombinant human HDAC8 (catalog number BML-SE145-0100) and HDAC10 (catalog number BML-SE559-0050) enzymes, HDAC substrates BML-KI104 and BML-KI178, and HDAC developer solutions BML-KI105 and BML-KI176 were purchased from Enzo Life Sciences (Farmingdale, NY). Recombinant human HDAC5 and HDAC11 were purchased from BPS Bioscience (San Diego, CA)(catalog numbers 50045 and 50021). Substrate Boc-Lys(TFA)-AMC was obtained from Bachem (Bupendorf, Switzerland) (catalog number 1-1985). HDAC inhibitor suberoylanilide hydroxamic acid (SAHA) was obtained from Indofine (Hillsborough Township, NJ) and trichostatin A (TSA) was obtained from Sigma-Aldrich (St. Louis, MO). […] HEPES pH 8.0 was obtained from Boston BioProducts (Ashland, MA), Tween-20 from Fisher Scientific (Hampton, NH)(catalog number BP337), TCEP from Calbiochem and 7.5% bovine serum albumin (BSA) from Life Technologies (Carlsbad, CA) (catalog number 15260037). 384-well, black assay plates were obtained from Corning (Corning, NY) (catalog number 3575).
The histone deacetylase activities of HDAC1, HDAC2, HDAC3, HDAC6, and HDAC8 were measured in modified Fluor-de-Lys assays in 384-well format. In this assay, HDAC enzymes are initially incubated with an ε-acetyl (or -trifluoroacetyl)-L-lysine-containing substrate with a C-terminal amide having aminomethylcoumarin as the amine component. HDACs cleave the ε-acetyl group, rendering the resulting product susceptible to AMC cleavage by trypsin. The released AMC is then detected by its fluorescence.
The HDAC 1, 2 assays employed buffer A, which contained 20 mM HEPES, pH 8.0, 1 mM MgCl2, 137 mM NaCl, 2.7 mM KCl, 0.05% BSA. The HDAC3/SMRT assay employed buffer B, consisting of 20 mM HEPES, pH 8.0, 1 mM MgCl2, 50 mM NaCl, 2.7 mM KCl, 0.05% BSA, 0.005% Tween 20, and 10 μM IP4. The HDAC6 assay employed buffer C, consisting of 20 mM HEPES, pH 8.0, 1 mM MgCl2, 137 mM NaCl, 2.7 mM KCl, 0.5 mM TCEP (Calbiochem) and 0.05% BSA. The HDAC8 assay employed buffer D, consisting of 20 mM HEPES, pH 8.0, 1 mM MgCl2, 100 mM NaCl, 20 mM KCl, 0.1% n-octyl-β-D-glucoside (Anatrace, Maumee, OH) and 0.05% BSA. All steps were performed at room temperature (23° C.). The assay was performed by pre-incubating serial dilutions of test compounds with the target HDAC prior to initiation with substrate. Each compound was titrated in a 10-point dose response, using a 1:3 fold dilution scheme, with 0.15 ul of solution added by ECHO555 to the plate, followed by the addition of 20 μl of the appropriate HDAC isoform diluted in appropriate assay buffer. […] Final conditions used for each assay were: 1. HDAC 1, 0.3 nM total enzyme, 20 μM substrate BML-K1104; 2. HDAC 2, 1.5 nM total enzyme, 40 μM substrate BML-K1104; 3. HDAC 3/SMRT, 0.3 nM total enzyme, 20 μM substrate BML-K1104; 4. HDAC 6, 1.3 nM total enzyme, 2.5 μM substrate BML-K1104; 5. HDAC 8, 1.3 nM total enzyme, 200 μM substrate BML-K1178; the final high dose of test compound was 30 μM. For potent compounds, 900 nM was used as the final high dose. The reactions were stopped and developed by addition of 30 ul of HDAC developer solution containing a saturating level of HDAC inhibitor as follows: 1.

Row | Compound | IC50
1 | CCC(=O)CCCOC[C@H](NC(=O)[C@H]1CC12CCN(CC)CC2)c1ncc(-c2cc3ccccc3nc2OC)[nH]1 [Compound 7, (1S)-6-ethyl-N-{(1R)-1-[5-(2-methoxyquinolin-3-yl)-1H-imidazol-2-yl]-2-[(4-oxohexyl)oxy]ethyl}-6-azaspiro[2.5]octane-1-carboxamide] | > 45000 nM
2 | CN(C)CC(=O)N[C@@H](COCCCC(=O)c1ccon1)c1[nH]c(-c2ccc(F)cc2)nc1Cl [Compound 17, N-[(1R)-1-[4-chloro-2-(4-fluorophenyl)-1H-imidazol-5-yl]-2-(4-isoxazol-3-yl-4-oxobutoxy)ethyl]-N~2~,N~2~- dimethylglycinamide] | > 900 nM
3 | COc1nc2ccccc2cc1-c1cnc([C@H](COCCCC(=O)c2ccon2)NC(=O)CN(C)C)[nH]1 [Compound 14, N-{(1R)-2-(4-isoxazol-3-yl-4-oxobutoxy)-1-[5-(2-methoxyquinolin-3-yl)-1H-imidazol-2-yl]ethyl}-N~2~,N~2~- dimethylglycinamide] | 1760 nM
4 | CNC(=O)C(=O)CCCOC[C@H](NC(=O)C12CCN(CC1)CC2)c1ncc(-c2cc3ccccc3nc2OC)[nH]1 [Compound 9, N-[(1R)-1-[5-(2-methoxyquinolin-3-yl)-1H-imidazol-2-yl]-2-{[5-(methylamino)-4,5-dioxopentyl]oxy}ethyl]-1-azabicyclo[2.2.2]octane-4-carboxamide] | 3370 nM
5 | CN1CCC2(CC1)C[C@@H]2C(=O)N[C@@H](COCCCC(=O)c1ccon1)c1[nH]c(-c2ccc(F)cc2)nc1Cl [Compound 18, (1S)-N-[(1R)-1-[4-chloro-2-(4-fluorophenyl)-1H-imidazol-5-yl]-2-(4-isoxazol-3-yl-4-oxobutoxy)ethyl]-6-methyl-6-azaspiro[2.5]octane-1-carboxamide] | > 900 nM
6 | CN1CC(C(=O)N[C@@H](COCCCC(=O)c2ccon2)c2[nH]c(-c3ccc(F)cc3)nc2Cl)C1 [Compound 16, N-[(1R)-1-[4-chloro-2-(4-fluorophenyl)-1H-imidazol-5-yl]-2-(4-isoxazol-3-yl-4-oxobutoxy)ethyl]-1-methylazetidine-3-carboxamide] | > 900 nM
7 | COc1nc2ccccc2cc1-c1cnc([C@H](COCCCC(=O)c2ncco2)NC(=O)C23CCN(CC2)CC3)[nH]1 [Compound 12, N-{(1R)-1-[5-(2-methoxyquinolin-3-yl)-1H-imidazol-2-yl]-2-[4-(1,3-oxazol-2-yl)-4-oxobutoxy]ethyl}-1-azabicyclo[2.2.2]octane-4-carboxamide] | 5550 nM
8 | COc1nc2ccccc2cc1-c1cnc([C@H](COCCCC(=O)c2ncco2)NC(=O)c2cncs2)[nH]1 [Compound 10, N-{(1R)-1-[5-(2-methoxyquinolin-3-yl)-1H-imidazol-2-yl]-2-[4-(1,3-oxazol-2-yl)-4-oxobutoxy]ethyl}-1,3-thiazole-5-carboxamide] | 1380 nM
9 | CCC(=O)CCCOC[C@H](NC(=O)C12CCN(CC1)CC2)c1ncc(-c2cc3ccccc3nc2OC)[nH]1 [Compound 6, N-{(1R)-1-[5-(2-methoxyquinolin-3-yl)-1H-imidazol-2-yl]-2-[(4-oxohexyl)oxy]ethyl}-1-azabicyclo[2.2.2]octane-4-carboxamide] | > 45000 nM
10 | COc1nc2ccccc2cc1-c1cnc([C@H](COCCCC(=O)c2ncco2)NC(=O)[C@H]2CC23CCN(C)CC3)[nH]1 [Compound 11, (1S)-N-{(1R)-1-[5-(2-methoxyquinolin-3-yl)-1H-imidazol-2-yl]-2-[4-(1,3-oxazol-2-yl)-4-oxobutoxy]ethyl}-6-methyl-6-azaspiro[2.5]octane-1-carboxamide] | 7780 nM
11 | COc1nc2ccccc2cc1-c1cnc([C@H](COCCCC(=O)c2ncco2)NC(=O)CN(C)C)[nH]1 [Compound 13, N-{(1R)-1-[5-(2-methoxyquinolin-3-yl)-1H-imidazol-2-yl]-2-[4-(1,3-oxazol-2-yl)-4-oxobutoxy]ethyl}-N~2~,N~2~- dimethylglycinamide] | 17000 nM
12 | CNC(=O)C(=O)CCCOC[C@H](NC(=O)c1cncs1)c1ncc(-c2cc3ccccc3nc2OC)[nH]1 [Compound 8, N-[(1R)-1-[5-(2-methoxyquinolin-3-yl)-1H-imidazol-2-yl]-2-{[5-(methylamino)-4,5-dioxopentyl]oxy}ethyl]-1,3-thiazole-5-carboxamide] | 3860 nM
13 | Cc1ccc2cc(-c3cnc([C@H](CSCCCC(=O)c4ncco4)NC(=O)[C@H]4CC45CCN(C)CC5)[nH]3)ccc2n1 [Compound 21, (1S)-6-methyl-N-[(1R)-1-[5-(2-methylquinolin-6-yl)-1H-imidazol-2-yl]-2-{[4-(1,3-oxazol-2-yl)-4-oxobutyl]sulfanyl}ethyl]-6-azaspiro[2.5]octane-1-carboxamide] | 1050 nM
14 | COc1cc2nc(C)ccc2cc1-c1cnc([C@H](COCCCC(=O)c2cc(C)on2)NC(=O)[C@H]2CC23CCN(C)CC3)[nH]1 [Compound 20, (1S)-N-{(1R)-1-[5-(7-methoxy-2-methylquinolin-6-yl)-1H-imidazol-2-yl]-2-[4-(5-methylisoxazol-3-yl)-4-oxobutoxy]ethyl}-6-methyl-6-azaspiro[2.5]octane-1-carboxamide] | > 900 nM
15 | N[C@@H](COCCCC(=O)c1ccon1)c1ncc(-c2ccccc2F)[nH]1 [Compound 2, (R)-4-(2-amino-2-(5-(2-fluorophenyl)-1H-imidazol-2-yl)ethoxy)-1-(isoxazol-3-yl)butan-1-one] | > 900 nM
16 | COc1cc2nc(C)ccc2cc1-c1cnc([C@H](COCCCC(=O)c2cc(C)on2)NC(=O)C2CN(C)C2)[nH]1 [Compound 19, N-{(1R)-1-[5-(7-methoxy-2-methylquinolin-6-yl)-1H-imidazol-2-yl]-2-[4-(5-methylisoxazol-3-yl)-4-oxobutoxy]ethyl}-1-methylazetidine-3-carboxamide] | > 900 nM
17 | CN1CC(C(=O)N[C@@H](COCCCC(=O)c2ccon2)c2ncc(-c3ccccc3F)[nH]2)C1 [Compound 15, N-[(1R)-1-[5-(2-fluorophenyl)-1H-imidazol-2-yl]-2-(4-isoxazol-3-yl-4-oxobutoxy)ethyl]-1-methylazetidine-3-carboxamide] | > 900 nM
18 | CCC(=O)CCCOC[C@H](NC(=O)c1cncs1)c1ncc(-c2cc3ccccc3nc2OC)[nH]1 [Compound 5, N-{(1R)-1-[5-(2-methoxyquinolin-3-yl)-1H-imidazol-2-yl]-2-[(4-oxohexyl)oxy]ethyl}-1,3-thiazole-5-carboxamide] | 2720 nM
